Several values for one entry are separate records, joined by “and”; a condition that tells them apart may be missing. Identical values can stand only once. Entries after “also recorded” stand apart in the source; their conditions may differ.
How the values were obtained:
P-gp = system: P-gp; set-up: method as in PMID 16846720; settings: Caco-2 cell lines; cited from earlier work
[1] = Freeze-thaw stability of QC samples in DMEM (HPLC); assay type: physicochemical; settings: for Stability, Mean: freeze-thawed versus freshly prepared samples, peak areas; for Effect of freeze thawing on concentration in DMEM: freeze-thawed versus fresh DMEM samples
Source text: The separation from endogenous compounds was investigated by analyzing six different samples of DMEM. Short and long term stability was investigated by comparing the peak areas of six freshly prepared QC assay samples to those of the freeze-thawed samples, and it was expressed as a percentage.

[2] = system: CEM (parental) T-lymphoblastoid cells; test: Intracellular accumulation (substrate study) in CEM parental cells; assay type: in vitro ADME; settings: 10 μg/ml drug, 30 min, 37 °C
Description: The parental cell line was CEM (T-lymphoblastoid cell line) was used as the parental cell line. CEMVBL cells that have increased expression of P-gp were selected under vinblastine. The selection of drug resistant cells was carried out by using increasing concentrations of vinblastine up to 100 ng/mL. CEM and CEMVBL Cells were cultured in 175 cm^2 flasks containing DMEM supplemented with 15 % FBS at 37 °C in a humidified 5 % CO2 gassed incubator, conditions which led to doubling after approximately every 24 h.
The cell samples were centrifuged (2000 × g for 5 min at 4 °C) and the supernatant fraction discarded. […] The cells were then incubated at 37 °C for 30 min in a shaking water bath. The resulting cell suspensions were then centrifuged (2000 × g for 5 min at 4 °C). 100 μl samples of the supernatant fraction were then removed, and the aliquots used to determine the extracellular (EXT) concentration. The excess supernatant fraction was then discarded and the resulting cell pellet washed three times in 10 ml HBSS and centrifuged (2000 × g for 5 min). […] The samples were then assayed by HPLC, and the data expressed as cellular accumulation ratio (CAR), the ratio of the intracellular to the extracellular accumulation calculated by the formula, CAR = (INT/EXT) × 10 [intracellular concentrations were calculated using the volume of a single CEM and CEMVBL cell to be 1 picolitre (pl)] […]

P-gp (CEMVBL cells) = target: T1, P-gp (CEMVBL cells) (Homo sapiens, UniProt P08183); test: Effect of PZQ and tariquidar on intracellular accumulation of SQV in CEMVBL cells (inhibition study); assay type: cell-based
T1 construct: CEMVBL cells that have increased expression of P-gp were selected under vinblastine; endogenous in cells; host or cells: CEMVBL (vinblastine-selected CEM T-lymphoblastoid cells)
T1 sequence (P08183 whole entry): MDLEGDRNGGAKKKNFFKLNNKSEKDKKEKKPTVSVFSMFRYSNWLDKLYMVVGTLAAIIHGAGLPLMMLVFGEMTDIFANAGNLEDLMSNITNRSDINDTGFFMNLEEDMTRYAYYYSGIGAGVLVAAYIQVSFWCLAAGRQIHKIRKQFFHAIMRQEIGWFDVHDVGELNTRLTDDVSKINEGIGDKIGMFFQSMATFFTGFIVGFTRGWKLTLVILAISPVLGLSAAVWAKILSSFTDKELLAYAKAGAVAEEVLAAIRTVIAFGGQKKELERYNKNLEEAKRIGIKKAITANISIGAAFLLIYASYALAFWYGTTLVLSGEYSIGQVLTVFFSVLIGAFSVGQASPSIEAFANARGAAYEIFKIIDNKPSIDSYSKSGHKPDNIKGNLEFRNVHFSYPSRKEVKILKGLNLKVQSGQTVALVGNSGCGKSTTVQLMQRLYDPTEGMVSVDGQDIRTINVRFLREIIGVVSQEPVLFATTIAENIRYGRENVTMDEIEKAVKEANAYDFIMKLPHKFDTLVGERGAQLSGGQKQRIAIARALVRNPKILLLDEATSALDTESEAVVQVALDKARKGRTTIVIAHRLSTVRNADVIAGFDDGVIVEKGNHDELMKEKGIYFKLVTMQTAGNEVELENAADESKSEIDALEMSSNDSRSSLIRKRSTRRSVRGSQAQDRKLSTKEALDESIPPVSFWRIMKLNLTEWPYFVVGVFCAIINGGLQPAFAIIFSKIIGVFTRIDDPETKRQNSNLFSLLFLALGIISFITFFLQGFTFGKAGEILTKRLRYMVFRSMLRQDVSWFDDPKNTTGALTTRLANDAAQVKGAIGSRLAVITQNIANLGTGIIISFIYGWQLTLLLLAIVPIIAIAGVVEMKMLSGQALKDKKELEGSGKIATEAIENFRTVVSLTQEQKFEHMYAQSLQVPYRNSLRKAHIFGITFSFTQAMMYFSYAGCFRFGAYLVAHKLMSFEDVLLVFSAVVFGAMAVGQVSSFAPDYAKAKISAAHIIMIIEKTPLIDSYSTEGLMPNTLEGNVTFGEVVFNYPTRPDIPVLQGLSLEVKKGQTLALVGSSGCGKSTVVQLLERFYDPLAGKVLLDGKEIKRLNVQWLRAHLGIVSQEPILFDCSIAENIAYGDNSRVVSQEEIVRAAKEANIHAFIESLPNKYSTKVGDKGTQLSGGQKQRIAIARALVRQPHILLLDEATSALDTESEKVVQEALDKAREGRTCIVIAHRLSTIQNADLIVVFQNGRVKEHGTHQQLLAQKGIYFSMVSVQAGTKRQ
Description: (§1) The cell samples were centrifuged (2000 × g for 5 min at 4 °C) and the supernatant fraction discarded. […] The cells were then incubated at 37 °C for 30 min in a shaking water bath. The resulting cell suspensions were then centrifuged (2000 × g for 5 min at 4 °C). 100 μl samples of the supernatant fraction were then removed, and the aliquots used to determine the extracellular (EXT) concentration. The excess supernatant fraction was then discarded and the resulting cell pellet washed three times in 10 ml HBSS and centrifuged (2000 × g for 5 min). The resulting pellets were solubilized by reconstituting in 100 μl of distilled water and used to determine intracellular (INT) concentrations as described in a method previously validated in our laboratory. The experiment was carried out in quadruplicate. The samples were then assayed by HPLC, and the data expressed as cellular accumulation ratio (CAR), the ratio of the intracellular to the extracellular accumulation calculated by the formula, CAR = (INT/EXT) × 10 [intracellular concentrations were calculated using the volume of a single CEM and CEMVBL cell to be 1 picolitre (pl)] [15, 30].

[3] = system: cellular efflux pumps (P-gp); set-up: method as in PMID 15847994, PMID 20513441; settings: cited from earlier work
[4] = system: CEMVBL cells which overexpress P-gp; test: Intracellular accumulation (substrate study) in CEMVBL cells; assay type: in vitro ADME
Description: The parental cell line was CEM (T-lymphoblastoid cell line) was used as the parental cell line. CEMVBL cells that have increased expression of P-gp were selected under vinblastine. The selection of drug resistant cells was carried out by using increasing concentrations of vinblastine up to 100 ng/mL.
as §1

[5] = system: CEM (parental) T-lymphoblastoid cells; test: Effect of PZQ and tariquidar on intracellular accumulation of SQV in CEM cells (inhibition study); assay type: cell-based
Description: as §1

SMDR2, a P-gp orthologue = system: SMDR2, a P-gp orthologue; set-up: method as in PMID 19726755; settings: cited from earlier work

Q: What does the source list for `O=C(C1CCCCC1)N1CC(=O)N2CCc3ccccc3C2C1` (centres unmarked) [PZQ, Praziquantel]?
A: P-gp inhibitor / substrate status (P-gp): an inhibitor of P-gp without being a substrate; Stability, Mean ([1]; HQC 19.2 μM in DMEM): 109 (±3) %; Stability, Mean ([1]; LQC 6.4 μM in DMEM): 105 (±4) %; Stability, Mean ([1]; MQC 12.8 μM in DMEM): 113 (±6) %; Effect of freeze thawing on concentration in DMEM [1]: did not appear to significantly affect the concentrations; Cellular accumulation ratio (CAR), individual sample ([2]; CAR = (INT/EXT) × 10, samples 1-4): 0.03 and 0.05 and 0.04; Cellular accumulation ratio (CAR), mean ([2]; mean (± SD), n = 4): 0.04 ± 0.009 and 0.04; P-gp inhibition (conclusion) (P-gp (CEMVBL cells); effect on SQV accumulation in CEMVBL cells compared to tariquidar): not an inhibitor of P-gp; also recorded: neither a substrate nor an inhibitor of P-gp; Interaction with cellular efflux pumps / P-gp substrate status [3]: did not show potential for interacting with cellular efflux pumps; also recorded: not a substrate; Permeability [3]: highly permeable substance; Cellular accumulation ratio (CAR), mean ([4]; CEMVBL cells, 10 μg/ml drug, 30 min, 37 °C, mean (± SD), n = 4): 0.05 ± 0.005 and 0.05; Cellular accumulation ratio (CAR), individual sample ([4]; CEMVBL cells, 10 μg/ml drug, 30 min, 37 °C, samples 1-4): 0.06 and 0.05; P-gp substrate specificity (conclusion) ([4]; comparison of accumulation in CEM and CEMVBL cells): not a substrate of P-gp; also recorded: neither a substrate nor an inhibitor of P-gp; CAR of SQV in presence of PZQ, mean ([5]; 10 μg/ml SQV + 10 μg/ml PZQ, mean (± SD), n = 4): 0.54 ± 0.061 and 0.54; CAR of SQV in presence of PZQ, individual sample ([5]; 10 μg/ml SQV + 10 μg/ml PZQ, samples 1-4): 0.45 and 0.57 and 0.59 and 0.53; Inhibition of transport by SMDR2 (SMDR2, a P-gp orthologue): inhibit the transport by SMDR2

Q: For `CC(C)(C)NC(=O)[C@@H]1C[C@@H]2CCCC[C@@H]2CN1C[C@@H](O)[C@H](Cc1ccccc1)NC(=O)[C@H](CC(N)=O)NC(=O)c1ccc2ccccc2n1` [SQV, Saquinavir], which “Effect of freeze thawing on concentration in DMEM” value [1] is on record?
A: did not appear to significantly affect the concentrations

Q: And the “CAR of SQV alone, mean (inhibition study)” value (P-gp (CEMVBL cells); CEMVBL cells, 10 μg/ml SQV alone, mean (± SD), n = 4)?
A: 0.09 ± 0.015 and 0.09

Q: And the “CAR of SQV alone, individual sample (inhibition study)” value (P-gp (CEMVBL cells); CEMVBL cells, 10 μg/ml SQV alone, samples 1-4)?
A: 0.07 and 0.10 and 0.11

Q: What about the “CAR of SQV alone, mean (inhibition study)” value ([5]; 10 μg/ml SQV alone, mean (± SD), n = 4) of the same compound?
A: 0.52 ± 0.068 and 0.52

Q: And the “CAR of SQV alone, individual sample (inhibition study)” value ([5]; 10 μg/ml SQV alone, samples 1-4)?
A: 0.57 and 0.50 and 0.59 and 0.44

Q: What does the source list for `COc1cc2c(cc1OC)CN(CCc1ccc(NC(=O)c3cc(OC)c(OC)cc3NC(=O)c3cnc4ccccc4c3)cc1)CC2` [tariquidar]?
A: CAR of SQV in presence of tariquidar (XR), mean ([5]; 10 μg/ml SQV + 1 μM tariquidar, mean (± SD), n = 4): 0.61 ± 0.102 and 0.61; CAR of SQV in presence of tariquidar (XR), individual sample ([5]; 10 μg/ml SQV + 1 μM tariquidar, samples 1-4, listed as XR): 0.55 and 0.51 and 0.73 and 0.66

Source: article PMC4983413, “Intracellular accumulation of Praziquantel in T lymphoblastoid cell lines, CEM (parental) and CEMVBL(P-gp-overexpressing)” (BMC Pharmacology & Toxicology, 2016)
